Like-named read-outs stand apart in the source and are kept apart here.
Assays:
[1] = target: T1, TDP2 (Homo sapiens, UniProt O95551); experiment: Gel-based TDP2 activity assay; type: biochemical
T1 construct: His-tag (N); made in house; host or cells: E. coli BL21 (DE3)
T1 sequence (O95551 1-362): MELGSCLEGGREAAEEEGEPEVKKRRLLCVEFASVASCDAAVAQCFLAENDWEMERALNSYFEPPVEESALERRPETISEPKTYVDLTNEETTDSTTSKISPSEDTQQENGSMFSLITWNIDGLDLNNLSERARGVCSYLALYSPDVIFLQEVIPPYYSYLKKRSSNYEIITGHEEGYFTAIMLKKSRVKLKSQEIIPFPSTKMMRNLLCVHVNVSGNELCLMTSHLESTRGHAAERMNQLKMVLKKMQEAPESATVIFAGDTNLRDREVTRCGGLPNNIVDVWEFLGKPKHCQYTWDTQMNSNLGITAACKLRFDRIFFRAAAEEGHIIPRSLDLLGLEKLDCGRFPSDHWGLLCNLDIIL
Method: To study the ability of the investigated compounds to inhibit TDP2 activity, we separated the TDP2 reaction products under denaturing conditions in polyacrylamide gel (PAGE). We tested the ability of TDP2 to eliminate tyrosine residues from the 5’ end of the oligonucleotide substrate in the absence and presence of TDP1 inhibitors. […] The residual TDP2 activity for the best four TDP1 inhibitors, 7g,h and 10a,b, was from 30 to 60%, depending on the tested compound, at a 1 mM concentration of the inhibitor. We tested the ability of compounds 7g,h and 10a,b to inhibit TDP2 activity at 0.2 mM and 0.5 mM concentrations (Figure S26).
The recombinant N-terminally His-tagged TDP2 was expressed in E. coli BL21 (DE3) cells. The plasmid pLATE-31-TDP2 expression vector was constructed as follows. cDNA encoding the TDP2 protein was cloned in the pLATE-31 expression vector using a LICator LIC Cloning and Expression System (Thermo Scientific, Waltham, MA, USA). […]
Oligonucleotide 5′- tyrosine -AAC GTC AGG GTC TTC C- FAM -3′ was synthesized as described above and used for the indication of TDP2 enzyme activity in polyacrylamide gel. […] A Typhoon FLA 9500 phosphorimager (GE Healthcare, Boston, MA, USA) was used for gel scanning and imaging, and the data were analyzed with QuantityOne 4.6.7 software (Bio-Rad Laboratories, Inc., Hercules, CA, USA).

[2] = target: T2, TDP1 (Homo sapiens, UniProt Q9NUW8); experiment: Real-time fluorescence assay of TDP1 activity; type: biochemical
T2 construct: made in house; host or cells: E. coli
T2 sequence (Q9NUW8 whole entry): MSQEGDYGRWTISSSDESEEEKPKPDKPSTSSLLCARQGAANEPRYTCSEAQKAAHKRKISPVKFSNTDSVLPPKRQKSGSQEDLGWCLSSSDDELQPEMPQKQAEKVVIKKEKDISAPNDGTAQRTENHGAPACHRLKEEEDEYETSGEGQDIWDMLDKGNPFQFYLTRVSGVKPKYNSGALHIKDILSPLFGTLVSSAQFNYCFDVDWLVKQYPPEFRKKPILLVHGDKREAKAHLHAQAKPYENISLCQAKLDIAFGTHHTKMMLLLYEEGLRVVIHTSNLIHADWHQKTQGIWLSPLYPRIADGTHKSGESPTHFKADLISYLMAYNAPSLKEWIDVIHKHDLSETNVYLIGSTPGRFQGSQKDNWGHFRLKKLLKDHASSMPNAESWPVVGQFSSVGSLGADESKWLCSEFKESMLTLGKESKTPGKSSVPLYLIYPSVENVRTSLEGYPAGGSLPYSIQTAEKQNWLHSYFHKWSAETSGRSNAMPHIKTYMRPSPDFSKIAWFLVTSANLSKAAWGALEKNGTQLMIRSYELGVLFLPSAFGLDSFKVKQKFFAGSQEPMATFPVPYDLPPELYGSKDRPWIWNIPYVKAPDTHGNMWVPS
Excerpt: We tested UA and all 14 newly synthesized UA derivatives for their TDP1 inhibitory properties by measuring their IC50 values using a real-time fluorescent assay. […] Compounds 10a,b are sulfoxide analogs of 7g,h.
Human recombinant tyrosyl-DNA phosphodiesterase 1 (TDP1) and human recombinant poly(ADP-ribose)-polymerase1 (PARP1) were expressed in the E. coli system and purified as described.
The biosensor (5′-[FAM] AAC GTC AGGGTC TTC C [BHQ]-3′) was synthesized in the Laboratory of Nucleic Acid Chemistry at the Institute of Chemical Biology and Fundamental Medicine (Novosibirsk, Russia) and was used for TDP1 enzyme activity real-time fluorescence detection. The reaction mixture (200 μL) contained a TDP1 reaction buffer (50 mM Tris-HCl, pH 8.0, 50 mM NaCl, and 7 mM β-mercaptoethanol), 50 nM oligonucleotide, varied concentrations of the tested compounds, and purified TDP1 in a final concentration 1.5 nM. The reaction mixtures were incubated at a constant temperature of 26 °C in a POLARstar OPTIMA fluorimeter (BMG LABTECH, GmbH, Ortenberg, Germany). Fluorescence intensity was measured (Ex485/Em520 nm) every 1 min for 10 min. The average values of the half maximal inhibitory concentration (IC50) were determined using an eleven-point concentration response curve and calculated using MARS Data Analysis 2.0 (BMG LABTECH). The 50% inhibitory concentration (IC50) was defined as the concentration of the compound that inhibited 50% of the enzyme activity when compared to the untreated controls. At least three independent experiments were carried out to obtain the IC50 values. To determine the kinetic parameters of the TDP1 enzymatic reaction, the apparent maximum rate of enzymatic reaction (Vmax), Michaelis constant (KM), possible inhibition mechanism, and steady-state kinetic experiments were carried out at 5 fixed concentrations of the substrate, with variation in the inhibitor concentrations. The standard reaction mixtures (200 μL) contained reaction buffer components; 50 nM, 100 nM, 200 nM, 500 nM, or 1000 nM substrate; an inhibitor; and 1.5 nM recombinant human TDP1. The initial kinetic curves were obtained in three independent experiments and statistically processed in OriginPro 8.6.0 (OriginLab, Northampton, MA, USA).

| SMILES | TDP2 inhibition (in words) [1] | IC50 ([2]; real-time fluorescent assay, 1.5 nM TDP1, 50 nM oligonucleotide, read-out: IC50 (TDP1)) | IC50 [2] | TDP1 inhibition (in words) ([2]; in the concentration range of the derivatives' IC50) |
| --- | --- | --- | --- | --- |
| CC(=O)C1=C(O)C=C2Oc3c(C(=O)C[S+]([O-])c4nc5ccccc5s4)c(O)c(C)c(O)c3[C@@]2(C)C1=O (stereo partly drawn) [10a, (2R)-4-acetyl-10-[2-(1,3-benzothiazole-2-sulfinyl)acetyl]-5,11,13-trihydroxy-2,12-dimethyl-8-oxatricyclo[7.4.0.0^2,7]trideca-1(13),4,6,9,11-pentaen-3-one] | moderately inhibit TDP2 | 2.1 ± 0.2 µM | – | – |
| CC(=O)c1c(O)c(C)c(O)c2c1OC1=CC(=O)C(C(C)=O)C(=O)C12C (centres unmarked) [UA, usnic acid] | did not inhibit TDP2 | – | > 50 µM | does not inhibit TDP1 |
